What was measured:
Format in all cases: in vivo
Venturia inaequalis [1] = assay: Example 4 field trials, apple (Malus domestica var. Golden delicious) infected with scab; details: 250 g a.c./ha
Plasmopara viticola = assay: Example 1 field trial, Vitis vinifera var. Chardonnay infected with downy mildew, South Africa; details: 120 g a.c./ha
Peronospora cumensis = assay: Example 2 field trial, cucumber (Cucumis sativus) infected with downy mildew, France; details: PESSEV, 150 g a.c./ha
Podosphaera leucotricha = assay: Example 14 field trials, apple (Malus domestica var. Gold Rush, var. Morgenduft Dallago) infected with powdery mildew; details: 840 g a.c./ha
Venturia inaequalis [2] = assay: Example 15 field trial, apple (Malus domestica var. Gala) infected with apple scab, France; details: PESINC, 200 leaves, 1200 g a.c./ha
Sphaerotheca fuliginea = assay: Example 8 field trial, cucumber (Cucumis sativus) infected with powdery mildew, Spain; details: 7 DA-A3, BBCH 63, 500 g a.c./ha

Compound: N#Cc1sc2c(=O)c3ccccc3c(=O)c=2sc1C#N [DIT, 5,10-dioxobenzo[g][1,4]benzodithiine-2,3-dicarbonitrile]
- DIT f.e. (%) (Venturia inaequalis [1]; PESINC, location 1 (France), 1 DA-A6, BBCH 74): 19.8%
- DIT f.e. (%) (Venturia inaequalis [1]; PESINC, location 1 (France), 6 DA-A4, BBCH 72): 38.6%
- DIT f.e. (%) (Venturia inaequalis [1]; PESINC, location 2 (United Kingdom), 5 DA-A8, BBCH 74): 59.0%
- DIT f.e. (%) (Venturia inaequalis [1]; PESINC, location 3 (Belgium), 31 DA-A9, BBCH 73): 51.8%
- DIT f.e. (%) (Venturia inaequalis [1]; PESINC, location 3 (Belgium), 80 DA-A9, BBCH 73): 42.6%
- DIT f.e. (%) (Venturia inaequalis [1]; PESSEV, location 1 (France), 1 DA-A6, BBCH 74): 63.0%
- DIT f.e. (%) (Venturia inaequalis [1]; PESSEV, location 1 (France), 6 DA-A4, BBCH 72): 75.4%

Compound: COC(=O)CC(NC(=O)[C@@H](NC(=O)OC(C)C)C(C)C)c1ccc(Cl)cc1 (stereo partly drawn) [VAL, methyl 3-(4-chlorophenyl)-3-[[(2S)-3-methyl-2-(propan-2-yloxycarbonylamino)butanoyl]amino]propanoate]
- VAL f.e. (%) (Plasmopara viticola; PESINC, 50 bunches, 14 DA-A3, BBCH 77): 64.0%
- VAL f.e. (%) (Plasmopara viticola; PESINC, 50 bunches, 14 DA-A5, BBCH 83): 53.6%
- VAL f.e. (%) (Plasmopara viticola; PESINC, 100 leaves, 14 DA-A3, BBCH 77): 57.6%
- VAL f.e. (%) (Plasmopara viticola; PESSEV, 50 bunches, 14 DA-A3, BBCH 77): 75.9%
- VAL f.e. (%) (Plasmopara viticola; PESSEV, 50 bunches, 14 DA-A5, BBCH 83): 73.3%
- VAL f.e. (%) (Plasmopara viticola; PESSEV, 100 leaves, 14 DA-A3, BBCH 77): 66.9%
- VAL f.e. (%) (Peronospora cumensis; 6 DA-A2, BBCH 19): 31.7%
- VAL f.e. (%) (Peronospora cumensis; 7 DA-A1, BBCH 16): 43.6%
- VAL f.e. (%) (Peronospora cumensis; 7 DA-A4, BBCH 19): 62.1%
- VAL f.e. (%) (Peronospora cumensis; 8 DA-A3, BBCH 19): 31.7%
- VAL f.e. (%) (Peronospora cumensis; 14 DA-A4, BBCH 19): 27.0%

Compound: OCC1(O)OC[C@@H](O)[C@H](O)[C@@H]1O (stereo partly drawn) [TAG, (3S,4S,5R)-2-(hydroxymethyl)oxane-2,3,4,5-tetrol]
- TAG f.e. (%) (Podosphaera leucotricha; PESINC, location 1 (France), 20 shoots, 7 DA-A5, BBCH 71): 26.7%
- TAG f.e. (%) (Podosphaera leucotricha; PESINC, location 1 (France), 100 leaves, 5 DA-A8, BBCH 74): 18.8%
- TAG f.e. (%) (Podosphaera leucotricha; PESINC, location 1 (France), 100 leaves, 6 DA-A6, BBCH 74): 14.5%
- TAG f.e. (%) (Podosphaera leucotricha; PESINC, location 1 (France), 100 leaves, 15 DA-A8, BBCH 76): 8.7%
- TAG f.e. (%) (Podosphaera leucotricha; PESINC, location 1, 20 shoots, 7 DA-A5, BBCH 71, second listing (r40)): 0.6%
- TAG f.e. (%) (Podosphaera leucotricha; PESINC, location 1, 100 leaves, 5 DA-A8, BBCH 74, second listing (r52)): 2.4%
- TAG f.e. (%) (Podosphaera leucotricha; PESINC, location 1, 100 leaves, 6 DA-A6, BBCH 74, second listing (r46)): 36.4%
- TAG f.e. (%) (Podosphaera leucotricha; PESINC, location 1, 100 leaves, 15 DA-A8, BBCH 76, second listing (r58)): 5.9%
- TAG f.e. (%) (Podosphaera leucotricha; PESSEV, location 1 (France), 100 leaves, 5 DA-A8, BBCH 74): 38.4%
- TAG f.e. (%) (Podosphaera leucotricha; PESSEV, location 1 (France), 100 leaves, 6 DA-A6, BBCH 74): 15.6%
- TAG f.e. (%) (Podosphaera leucotricha; PESSEV, location 1 (France), 100 leaves, 15 DA-A8, BBCH 76): 2.6%
- TAG f.e. (%) (Podosphaera leucotricha; PESSEV, location 1, 100 leaves, 5 DA-A8, BBCH 74, second listing (r49)): 1.6%
- TAG f.e. (%) (Podosphaera leucotricha; PESSEV, location 1, 100 leaves, 6 DA-A6, BBCH 74, second listing (r43)): 44.9%
- TAG f.e. (%) (Podosphaera leucotricha; PESSEV, location 1, 100 leaves, 15 DA-A8, BBCH 76, second listing (r55)): 3.5%
- TAG f.e. (%) (Venturia inaequalis [2]; 28 DA-A12, BBCH 73): 28.1%
- TAG f.e. (%) (Venturia inaequalis [2]; 56 DA-A12, BBCH 75): 28.0%
- TAG f.e. (%) (Sphaerotheca fuliginea; PESINC): 83.9%
- TAG f.e. (%) (Sphaerotheca fuliginea; PESSEV): 93.2%
